This note sets out measurements from patent US20230310428A1, “EGFR INHIBITOR AND PREPARATION METHOD AND USE THEREOF” (HONGYUN BIOTECH CO., LTD., priority 2020, published 2023).

Common to all, as to assay: Growth inhibitory activity of compounds on BaF3 cell lines stably transfected with kinase (MTS, 48 h)
Common to all, as to assay type: cell-based

The target of assay [1] is T1, various mutants of kinase EGFR (BaF3 cell lines stably transfected with kinase) (Homo sapiens, UniProt P00533, L858R/T790M).
T1 construct: expressed in transfected cells; host or cells: BaF3
The following applies: BaF3 cells stably transfected with EGFR L858R/T790M, read-out: IC50, growth inhibition, L858R/T790M. In outline:
(§1)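 First, cells were seeded and treated with an eight-point threefold dilution series starting at 10 µM (0.1% DMSO). After 48 h at 37 °C, MTS reagent was added for 1-4 h before absorbance at 490 nm. Inhibition rates gave the IC50.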

The target of assay [2] is T2, various mutants of kinase EGFR (BaF3 cell lines stably transfected with kinase) (Homo sapiens, UniProt P00533, C797S/L858R/T790M).
T2 construct: expressed in transfected cells; host or cells: BaF3
The following applies: BaF3 cells stably transfected with EGFR L858R/T790M/C797S, read-out: IC50, growth inhibition, L858R/T790M/C797S. A digest of the protocol: as §1

Assay [3] has as its target T3, various mutants of kinase EGFR (BaF3 cell lines stably transfected with kinase) (Homo sapiens, UniProt P00533, T790M/C797S, form not given).
T3 construct: other: BaF3 cells stably transfected with EGFR Δ19Del/T790M/C797S; MTS, 48; other: BaF3 cell line stably transfected with EGFR Δ19Del/T790M/C7
The following applies: BaF3 cells stably transfected with EGFR Δ19Del/T790M/C797S, read-out: IC50, growth inhibition, Δ19Del/T790M/C797S. A digest of the protocol:
as §1

Assay [4] deals with T4, various mutants of kinase EGFR (BaF3 cell lines stably transfected with kinase) (Homo sapiens, UniProt P00533, T790M, form not given).
T4 construct: other: BaF3 cells stably transfected with EGFR Δ19Del/T790M; MTS, 48 h; other: BaF3 cell line stably transfected with EGFR Δ19Del/T790M; MTS, 48
The following applies: BaF3 cells stably transfected with EGFR Δ19Del/T790M, read-out: IC50, growth inhibition, Δ19Del/T790M. In outline: as §1

Assay [5] concerns the target T5, various mutants of kinase EGFR (BaF3 cell lines stably transfected with kinase) (Homo sapiens, UniProt P00533, L858R).
T5 construct: expressed in transfected cells; host or cells: BaF3
The note with it: BaF3 cells stably transfected with EGFR L858R, read-out: IC50, growth inhibition, L858R. In outline:
as §1

Assay [6] has as its target T6, various mutants of kinase EGFR (BaF3 cell lines stably transfected with kinase) (Homo sapiens, UniProt P00533).
T6 construct: other: BaF3 cells stably transfected with EGFR Δ19Del; MTS, 48 h; other: BaF3 cell line stably transfected with EGFR Δ19Del
The following applies: BaF3 cells stably transfected with EGFR Δ19Del, read-out: IC50, growth inhibition, Δ19Del. A digest of the protocol:
as §1

pIC50: −log10 of the molar value. A value given as a limit tells only on which side of the number the result lay.

T4 sequence (P00533 with tags, fused parts or gaps DEL746-750/T790M, form open): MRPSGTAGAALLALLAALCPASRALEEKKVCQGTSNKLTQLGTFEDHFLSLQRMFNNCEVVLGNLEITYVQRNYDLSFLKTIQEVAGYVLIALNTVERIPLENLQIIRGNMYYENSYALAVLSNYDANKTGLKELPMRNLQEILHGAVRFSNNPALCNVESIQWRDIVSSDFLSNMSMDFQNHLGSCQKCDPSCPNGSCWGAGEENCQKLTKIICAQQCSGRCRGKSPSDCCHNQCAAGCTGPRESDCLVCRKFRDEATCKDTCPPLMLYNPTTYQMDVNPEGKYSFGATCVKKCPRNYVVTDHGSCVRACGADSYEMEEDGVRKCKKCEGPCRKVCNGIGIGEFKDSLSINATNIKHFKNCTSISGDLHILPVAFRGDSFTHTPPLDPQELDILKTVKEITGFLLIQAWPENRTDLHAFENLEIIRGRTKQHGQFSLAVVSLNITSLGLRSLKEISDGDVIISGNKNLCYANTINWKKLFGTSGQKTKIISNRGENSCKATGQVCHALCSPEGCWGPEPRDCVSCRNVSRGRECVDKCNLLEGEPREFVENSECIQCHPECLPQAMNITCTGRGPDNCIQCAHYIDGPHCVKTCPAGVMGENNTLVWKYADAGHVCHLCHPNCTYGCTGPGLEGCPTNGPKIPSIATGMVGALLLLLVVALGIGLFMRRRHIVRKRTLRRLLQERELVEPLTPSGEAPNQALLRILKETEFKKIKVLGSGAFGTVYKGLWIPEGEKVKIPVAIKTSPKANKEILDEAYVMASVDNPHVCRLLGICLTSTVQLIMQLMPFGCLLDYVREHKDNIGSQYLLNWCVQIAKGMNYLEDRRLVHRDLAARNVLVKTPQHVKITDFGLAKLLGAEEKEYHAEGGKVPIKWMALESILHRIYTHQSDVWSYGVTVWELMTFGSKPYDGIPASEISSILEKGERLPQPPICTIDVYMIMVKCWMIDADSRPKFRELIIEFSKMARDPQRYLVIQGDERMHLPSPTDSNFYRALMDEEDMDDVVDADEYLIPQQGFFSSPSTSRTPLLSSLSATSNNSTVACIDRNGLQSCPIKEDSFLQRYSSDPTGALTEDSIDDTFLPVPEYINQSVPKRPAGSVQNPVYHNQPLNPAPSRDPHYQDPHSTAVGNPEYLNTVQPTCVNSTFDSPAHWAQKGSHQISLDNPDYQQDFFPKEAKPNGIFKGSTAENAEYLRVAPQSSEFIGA
T6 sequence (P00533 with tags, fused parts or gaps DEL746-750): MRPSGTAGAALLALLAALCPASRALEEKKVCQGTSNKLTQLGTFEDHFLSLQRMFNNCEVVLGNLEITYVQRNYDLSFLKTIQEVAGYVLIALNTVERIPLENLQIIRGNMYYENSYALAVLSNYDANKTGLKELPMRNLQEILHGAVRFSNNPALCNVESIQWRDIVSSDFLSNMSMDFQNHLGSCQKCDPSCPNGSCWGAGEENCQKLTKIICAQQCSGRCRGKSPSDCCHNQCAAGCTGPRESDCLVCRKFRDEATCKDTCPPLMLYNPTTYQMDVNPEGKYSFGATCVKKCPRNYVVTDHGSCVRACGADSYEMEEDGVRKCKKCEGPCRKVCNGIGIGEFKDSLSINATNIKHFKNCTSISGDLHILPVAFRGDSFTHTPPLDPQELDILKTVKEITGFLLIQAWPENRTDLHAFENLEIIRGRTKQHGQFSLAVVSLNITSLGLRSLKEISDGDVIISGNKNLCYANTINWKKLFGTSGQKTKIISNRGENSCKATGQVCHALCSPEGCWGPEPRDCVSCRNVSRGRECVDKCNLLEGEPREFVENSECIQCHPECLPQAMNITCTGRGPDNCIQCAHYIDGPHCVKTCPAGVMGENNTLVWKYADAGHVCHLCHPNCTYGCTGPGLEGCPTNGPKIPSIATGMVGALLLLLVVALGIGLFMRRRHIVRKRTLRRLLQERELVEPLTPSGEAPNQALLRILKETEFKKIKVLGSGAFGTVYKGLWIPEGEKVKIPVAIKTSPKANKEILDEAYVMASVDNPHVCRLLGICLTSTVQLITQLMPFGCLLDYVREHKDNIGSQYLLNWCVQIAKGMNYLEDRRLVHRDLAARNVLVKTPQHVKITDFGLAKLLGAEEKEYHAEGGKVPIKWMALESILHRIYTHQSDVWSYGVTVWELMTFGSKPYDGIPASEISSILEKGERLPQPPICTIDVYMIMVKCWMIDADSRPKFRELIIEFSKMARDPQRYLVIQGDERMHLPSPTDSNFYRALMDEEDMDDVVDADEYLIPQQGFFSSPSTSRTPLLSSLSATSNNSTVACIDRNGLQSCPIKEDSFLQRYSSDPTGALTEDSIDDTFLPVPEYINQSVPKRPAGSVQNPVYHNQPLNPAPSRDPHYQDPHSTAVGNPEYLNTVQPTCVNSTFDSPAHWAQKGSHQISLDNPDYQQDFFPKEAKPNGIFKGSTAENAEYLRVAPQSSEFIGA
T2 sequence (P00533 25-1210 T790M/C797S/L858R): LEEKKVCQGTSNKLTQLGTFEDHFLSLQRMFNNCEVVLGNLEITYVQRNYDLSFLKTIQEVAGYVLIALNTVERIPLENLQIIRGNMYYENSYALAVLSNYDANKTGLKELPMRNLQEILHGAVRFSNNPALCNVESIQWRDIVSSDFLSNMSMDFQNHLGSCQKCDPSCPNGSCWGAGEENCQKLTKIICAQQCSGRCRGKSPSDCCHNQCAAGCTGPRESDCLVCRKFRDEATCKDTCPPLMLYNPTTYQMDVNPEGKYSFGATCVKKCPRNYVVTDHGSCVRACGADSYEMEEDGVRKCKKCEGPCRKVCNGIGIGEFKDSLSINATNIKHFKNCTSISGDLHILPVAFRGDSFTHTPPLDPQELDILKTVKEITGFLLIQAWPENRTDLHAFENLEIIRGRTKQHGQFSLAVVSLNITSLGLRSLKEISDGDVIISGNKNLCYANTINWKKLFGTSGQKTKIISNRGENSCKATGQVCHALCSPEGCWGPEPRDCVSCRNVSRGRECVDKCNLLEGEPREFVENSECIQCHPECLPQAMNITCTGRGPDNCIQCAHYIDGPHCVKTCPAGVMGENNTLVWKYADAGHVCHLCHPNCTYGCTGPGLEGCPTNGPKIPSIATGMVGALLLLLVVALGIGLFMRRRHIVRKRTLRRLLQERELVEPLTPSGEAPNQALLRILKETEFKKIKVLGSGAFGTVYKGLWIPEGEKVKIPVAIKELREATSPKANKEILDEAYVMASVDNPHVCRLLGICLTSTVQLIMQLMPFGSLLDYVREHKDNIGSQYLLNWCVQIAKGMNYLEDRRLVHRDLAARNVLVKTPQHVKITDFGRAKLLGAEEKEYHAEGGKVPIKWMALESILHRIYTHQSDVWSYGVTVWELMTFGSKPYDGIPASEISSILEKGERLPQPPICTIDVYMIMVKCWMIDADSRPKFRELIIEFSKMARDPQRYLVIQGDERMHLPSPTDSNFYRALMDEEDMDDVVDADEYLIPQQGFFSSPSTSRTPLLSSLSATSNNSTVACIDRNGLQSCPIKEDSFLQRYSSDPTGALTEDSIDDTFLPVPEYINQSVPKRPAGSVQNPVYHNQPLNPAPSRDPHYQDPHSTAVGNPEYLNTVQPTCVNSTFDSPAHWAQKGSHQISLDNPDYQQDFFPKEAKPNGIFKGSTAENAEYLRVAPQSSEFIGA
T3 sequence (P00533 with tags, fused parts or gaps DEL746-750/T790M/C797S, form open): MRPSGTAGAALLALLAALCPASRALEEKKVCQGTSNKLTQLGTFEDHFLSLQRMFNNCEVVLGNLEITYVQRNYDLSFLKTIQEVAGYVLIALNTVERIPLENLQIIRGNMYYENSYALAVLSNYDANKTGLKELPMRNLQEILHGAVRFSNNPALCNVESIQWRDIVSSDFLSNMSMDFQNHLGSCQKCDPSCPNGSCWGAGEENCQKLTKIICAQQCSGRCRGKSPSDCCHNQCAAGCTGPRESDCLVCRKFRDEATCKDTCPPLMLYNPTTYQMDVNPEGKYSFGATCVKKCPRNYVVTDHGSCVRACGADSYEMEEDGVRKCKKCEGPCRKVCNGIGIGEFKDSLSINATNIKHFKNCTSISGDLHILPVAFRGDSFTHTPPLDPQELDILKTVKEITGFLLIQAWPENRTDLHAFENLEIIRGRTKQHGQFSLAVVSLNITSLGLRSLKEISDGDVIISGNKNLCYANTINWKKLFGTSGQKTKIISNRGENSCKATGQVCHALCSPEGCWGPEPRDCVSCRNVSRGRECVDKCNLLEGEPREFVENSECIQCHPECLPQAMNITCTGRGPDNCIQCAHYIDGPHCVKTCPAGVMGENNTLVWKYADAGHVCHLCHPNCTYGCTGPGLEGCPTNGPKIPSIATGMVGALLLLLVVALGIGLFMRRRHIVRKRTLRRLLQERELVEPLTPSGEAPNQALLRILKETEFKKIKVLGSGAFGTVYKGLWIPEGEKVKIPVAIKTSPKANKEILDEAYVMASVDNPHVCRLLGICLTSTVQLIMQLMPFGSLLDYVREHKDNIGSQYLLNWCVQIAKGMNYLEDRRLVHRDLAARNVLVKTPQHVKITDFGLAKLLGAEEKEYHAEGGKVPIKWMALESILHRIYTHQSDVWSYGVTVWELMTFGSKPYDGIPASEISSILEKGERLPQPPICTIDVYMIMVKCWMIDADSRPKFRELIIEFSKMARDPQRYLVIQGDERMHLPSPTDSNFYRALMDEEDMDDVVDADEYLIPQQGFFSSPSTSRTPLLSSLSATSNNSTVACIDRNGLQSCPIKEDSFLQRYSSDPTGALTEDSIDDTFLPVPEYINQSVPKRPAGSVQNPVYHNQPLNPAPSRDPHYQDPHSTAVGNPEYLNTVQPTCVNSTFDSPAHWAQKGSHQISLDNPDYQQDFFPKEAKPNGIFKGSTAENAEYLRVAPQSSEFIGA

On to `CCc1cc(Nc2ncc(C3CC3)c(Nc3ccc4nccnc4c3N(C)S(C)(=O)=O)n2)c(OC)cc1N1CCC(N(C)C)CC1` [Compound I-273], for which the pIC50 in assay [1], in assay [2], in assay [3], in assay [4], in assay [5] and in assay [6] was ≥ 7.30 in each case.
On to `COc1cc(N2CCC(N(C)C)C2)c(C)cc1Nc1ncc(C2CC2)c(Nc2ccc3nccnc3c2N(C)S(C)(=O)=O)n1` (stereo not drawn) [Compound I-274], for which the pIC50 in assay [1] was 6.30 to 7.30; in assay [2], 6.30 to 7.30; in assay [3] it was ≥ 7.30; in assay [4], 6.30 to 7.30; in assay [5], 6.30 to 7.30; in assay [6], 6.30 to 7.30.
As for `CCc1cc(Nc2ncc(C3CC3)c(Nc3ccc4nccnc4c3N(C)S(C)(=O)=O)n2)c(OC)cc1N1CCC(N(C)C)C1` (stereo not drawn) [Compound I-275], the pIC50 was 6.30 to 7.30 in assay [1]; ≥ 7.30 in assay [2]; ≥ 7.30 in assay [3]; ≥ 7.30 in assay [4]; ≥ 7.30 in assay [5]; ≥ 7.30 in assay [6].
For the compound `COc1cc(N2CCC(N3CCN(C)CC3)CC2)c(C)cc1Nc1ncc(C)c(Nc2ccc3nccnc3c2N(C)S(C)(=O)=O)n1` [Compound I-276], the pIC50 in assay [1], in assay [2], in assay [3], in assay [4], in assay [5] and in assay [6] was ≥ 7.30 throughout.
With `CCc1cc(Nc2ncc(C)c(Nc3ccc4nccnc4c3N(C)S(C)(=O)=O)n2)c(OC)cc1N1CCC(N2CCN(C)CC2)CC1` [Compound I-277], the pIC50 in assay [1], in assay [2], in assay [3], in assay [4], in assay [5] and in assay [6] was ≥ 7.30 in each case.
`CCc1cc(Nc2ncc(C)c(Nc3ccc4nccnc4c3N(C)S(C)(=O)=O)n2)c(OC)nc1N1CCC(N2CCN(C)CC2)CC1` [Compound I-278]: the pIC50 in assay [1], in assay [2], in assay [3], in assay [4], in assay [5] and in assay [6] was ≥ 7.30 throughout.
Take `CCc1cc(Nc2ncc(C)c(Nc3ccc4nccnc4c3N(C)S(C)(=O)=O)n2)c(OC)cc1N1CCC(N(C)C)CC1` [Compound I-279]: the pIC50 in assay [1], in assay [2], in assay [3], in assay [4], in assay [5] and in assay [6] was ≥ 7.30 each time.
On to `CCc1cc(Nc2ncc(C)c(Nc3ccc4nccnc4c3N(C)S(C)(=O)=O)n2)c(OC)cc1N1CCC(N(C)C)C1` (stereo not drawn) [Compound I-280], for which the pIC50 in assay [1], in assay [2], in assay [3], in assay [4], in assay [5] and in assay [6] was ≥ 7.30 each time.
As for `CCc1cc(Nc2ncc(OC)c(Nc3ccc4nccnc4c3N(C)S(C)(=O)=O)n2)c(OC(F)(F)F)cc1N1CCC(N2CCN(C)CC2)CC1` [Compound I-281], the pIC50 in assay [1], in assay [2], in assay [3], in assay [4], in assay [5] and in assay [6] was ≥ 7.30 throughout.
As for `CCc1cc(Nc2ncc(OC)c(Nc3ccc4nccnc4c3N(C)S(C)(=O)=O)n2)c(OC)cc1N1CCC(N(C)C)CC1` [Compound I-282], the pIC50 in assay [1], in assay [2], in assay [3], in assay [4], in assay [5] and in assay [6] was ≥ 7.30 throughout.
Regarding `CCc1cc(Nc2ncc(OC)c(Nc3ccc4nccnc4c3N(C)S(C)(=O)=O)n2)c(OC)cc1N1CCN(C)CC1` [Compound I-283], the pIC50 in assay [1], in assay [2], in assay [3], in assay [4], in assay [5] and in assay [6] was ≥ 7.30 throughout.
Regarding `COc1cc(N2CCC(N3CCN(C)CC3)CC2)c(C(C)C)cc1Nc1ncc(Br)c(Nc2ccc3nccnc3c2N(C)S(C)(=O)=O)n1` [Compound I-284], the pIC50 in assay [1] is 6.30 to 7.30; in assay [2], ≥ 7.30; in assay [3] it was ≥ 7.30; in assay [4] it was 6.30 to 7.30; in assay [5], 5.60 to 6.30; in assay [6] it was 6.30 to 7.30.
`COc1cc(N2CCC(N3CCN(C)CC3)CC2)c(C2CC2)cc1Nc1ncc(Br)c(Nc2ccc3nccnc3c2N(C)S(C)(=O)=O)n1` [Compound I-285]: the pIC50 is ≥ 7.30 in assay [1]; ≥ 7.30 in assay [2]; ≥ 7.30 in assay [3]; ≥ 7.30 in assay [4]; 6.30 to 7.30 in assay [5]; 6.30 to 7.30 in assay [6].
Take `CCc1cc(Nc2ncc(Br)c(Nc3ccc4nccnc4c3N(C)S(C)(=O)=O)n2)ccc1N1CCC(N2CCN(C)CC2)CC1` [Compound I-286]: the pIC50 in assay [1], in assay [2], in assay [3], in assay [4], in assay [5] and in assay [6] was ≥ 7.30 throughout.
For the compound `COc1cc(N2CCC(N3CCN(C)CC3)CC2)c(C2CC2)cc1Nc1ncc(Cl)c(Nc2ccc3nccnc3c2N(C)S(C)(=O)=O)n1` [Compound I-287], the pIC50 is ≥ 7.30 in assay [1]; ≥ 7.30 in assay [2]; ≥ 7.30 in assay [3]; ≥ 7.30 in assay [4]; 6.30 to 7.30 in assay [5]; 6.30 to 7.30 in assay [6].
With `COc1cc(N2CCC(N3CCN(C)CC3)CC2)c(C(C)C)cc1Nc1ncc(Cl)c(Nc2ccc3nccnc3c2N(C)S(C)(=O)=O)n1` [Compound I-288], the pIC50 is 6.30 to 7.30 in assay [1]; 6.30 to 7.30 in assay [2]; 6.30 to 7.30 in assay [3]; 6.30 to 7.30 in assay [4]; ≥ 7.30 in assay [5]; 6.30 to 7.30 in assay [6].
Consider `CCc1cc(Nc2ncc(Cl)c(Nc3ccc4nccnc4c3N(C)S(C)(=O)=O)n2)ccc1N1CCC(N2CCN(C)CC2)CC1` [Compound I-289], for which the pIC50 in assay [1], in assay [2], in assay [3], in assay [4], in assay [5] and in assay [6] was ≥ 7.30 each time.
As to `C=Cc1cc(Nc2ncc([N+](=O)[O-])c(Nc3ccc4nccnc4c3N(C)S(C)(=O)=O)n2)c(OC(F)(F)F)cc1N1CCC(N2CCN(C)CC2)CC1` [Compound I-290], the pIC50 in assay [1] is 6.30 to 7.30; in assay [2], 6.30 to 7.30; in assay [3], 6.30 to 7.30; in assay [4] it was 6.30 to 7.30; in assay [5], 5.60 to 6.30; in assay [6], 5.60 to 6.30.
For the compound `COc1cc(N2CCC(N3CCN(C)CC3)CC2)c(C(C)C)cc1Nc1ncc(C2CC2)c(Nc2ccc3nccnc3c2N(C)S(C)(=O)=O)n1` [Compound I-291], the pIC50 in assay [1] was 6.30 to 7.30; in assay [2], 5.60 to 6.30; in assay [3], 6.30 to 7.30; in assay [4], 6.30 to 7.30; in assay [5], 6.30 to 7.30; in assay [6], 6.30 to 7.30.
Consider `COc1cc(N2CCC(N3CCN(C)CC3)CC2)c(C2CC2)cc1Nc1ncc(C2CC2)c(Nc2ccc3nccnc3c2N(C)S(C)(=O)=O)n1` [Compound I-292], for which the pIC50 in assay [1] is ≥ 7.30; in assay [2] it was 6.30 to 7.30; in assay [3] it was 6.30 to 7.30; in assay [4] it was ≥ 7.30; in assay [5], 6.30 to 7.30; in assay [6], 6.30 to 7.30.
Regarding `CCc1cc(Nc2ncc(C3CC3)c(Nc3ccc4nccnc4c3N(C)S(C)(=O)=O)n2)ccc1N1CCC(N2CCN(C)CC2)CC1` [Compound I-293], the pIC50 is ≥ 7.30 in assay [1]; 6.30 to 7.30 in assay [2]; 6.30 to 7.30 in assay [3]; ≥ 7.30 in assay [4]; 6.30 to 7.30 in assay [5]; 6.30 to 7.30 in assay [6].
For the compound `CCS(=O)(=O)N(C)c1c(Nc2nc(Nc3ccc(N4CCC(N5CCN(C)CC5)CC4)cc3OC)ncc2Cl)ccc2nccnc12` [Compound I-294], the pIC50 in assay [1] is 6.30 to 7.30; in assay [2], 6.30 to 7.30; in assay [3], ≥ 7.30; in assay [4], 6.30 to 7.30; in assay [5], 6.30 to 7.30; in assay [6], 6.30 to 7.30.
